Measurements as given in ChEMBL document CHEMBL5042556, “Lead Optimization to Advance Protease-Activated Receptor-1 Antagonists in Early Discovery” (J Med Chem, 2022).

How the values were obtained:
[1] = MRT in cynomolgus monkey at 0.3 mg/kg, po; assay type: ADME, organism-based, Macaca fascicularis; details: in vivo
[2] = biological target: Voltage-gated inwardly rectifying potassium channel KCNH2 (Homo sapiens, UniProt Q12809); assay: Inhibition of [35S]MK-499 binding to hERG expressed in HEK293 cells; assay type: toxicity, cell-based
Sequence of Voltage-gated inwardly rectifying potassium channel KCNH2 (Q12809 whole entry): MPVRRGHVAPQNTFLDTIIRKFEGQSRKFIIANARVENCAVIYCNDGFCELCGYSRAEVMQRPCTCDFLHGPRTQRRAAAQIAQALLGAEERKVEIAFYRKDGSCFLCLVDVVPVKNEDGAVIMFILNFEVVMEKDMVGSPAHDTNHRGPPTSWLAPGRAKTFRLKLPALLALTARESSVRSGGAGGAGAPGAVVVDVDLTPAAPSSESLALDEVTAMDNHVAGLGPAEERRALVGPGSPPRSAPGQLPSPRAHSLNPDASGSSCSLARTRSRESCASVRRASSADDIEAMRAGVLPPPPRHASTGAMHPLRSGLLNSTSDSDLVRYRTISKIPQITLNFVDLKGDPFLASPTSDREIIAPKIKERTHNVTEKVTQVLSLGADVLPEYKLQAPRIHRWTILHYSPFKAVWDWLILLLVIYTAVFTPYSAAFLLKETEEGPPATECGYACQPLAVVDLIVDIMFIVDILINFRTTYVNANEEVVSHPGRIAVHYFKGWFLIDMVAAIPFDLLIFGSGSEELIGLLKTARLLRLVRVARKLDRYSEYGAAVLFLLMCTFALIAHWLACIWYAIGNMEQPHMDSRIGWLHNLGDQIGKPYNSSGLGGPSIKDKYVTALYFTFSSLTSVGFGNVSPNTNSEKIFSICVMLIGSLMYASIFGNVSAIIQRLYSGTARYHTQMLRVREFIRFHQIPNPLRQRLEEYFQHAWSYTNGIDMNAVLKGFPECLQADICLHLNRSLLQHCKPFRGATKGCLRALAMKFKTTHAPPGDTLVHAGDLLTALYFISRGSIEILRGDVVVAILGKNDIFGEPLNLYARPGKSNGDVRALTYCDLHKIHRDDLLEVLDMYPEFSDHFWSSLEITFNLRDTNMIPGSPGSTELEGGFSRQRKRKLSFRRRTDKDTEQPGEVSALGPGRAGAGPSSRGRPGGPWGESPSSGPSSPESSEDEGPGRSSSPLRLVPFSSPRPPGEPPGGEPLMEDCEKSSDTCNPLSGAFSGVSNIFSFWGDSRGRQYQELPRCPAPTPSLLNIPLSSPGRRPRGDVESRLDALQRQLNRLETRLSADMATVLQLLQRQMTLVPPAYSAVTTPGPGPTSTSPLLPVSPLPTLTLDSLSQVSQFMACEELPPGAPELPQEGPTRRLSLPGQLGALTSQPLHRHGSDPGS

[3] = biological target: T1, Proteinase-activated receptor 1 (Homo sapiens, UniProt P25116); assay: Antagonist activity at human PAR-1 expressed in HEK293 cells assessed as reduction in TRAP induced calcium signal at 3 uM by FLIPR analysis; assay type: functional, cell-based
T1 sequence (P25116 whole entry): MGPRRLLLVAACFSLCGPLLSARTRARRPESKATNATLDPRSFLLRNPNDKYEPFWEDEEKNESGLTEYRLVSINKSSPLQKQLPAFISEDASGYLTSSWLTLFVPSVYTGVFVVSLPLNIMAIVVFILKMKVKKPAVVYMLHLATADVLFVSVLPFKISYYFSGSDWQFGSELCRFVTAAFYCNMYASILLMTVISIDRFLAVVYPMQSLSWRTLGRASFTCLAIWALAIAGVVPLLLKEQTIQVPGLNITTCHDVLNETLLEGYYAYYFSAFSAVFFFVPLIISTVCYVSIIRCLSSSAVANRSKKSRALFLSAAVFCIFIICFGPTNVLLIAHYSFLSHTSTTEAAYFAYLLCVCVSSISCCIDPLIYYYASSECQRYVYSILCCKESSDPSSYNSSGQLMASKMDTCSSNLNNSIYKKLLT

| Structure (SMILES) | MRT [1] | IC50 [2] | IC50 [3] |
| --- | --- | --- | --- |
| C[C@H]1OC(=O)[C@]2(O)CC(F)(F)[C@@H](C)[C@H](/C=C/c3ccc(-c4cccc(F)c4)cn3)[C@H]12 | 68 h | 29 µM | 0.008 µM |
| C[C@@H]1[C@@H](C)[C@@H]2CN(C)C[C@@]23C(=O)O[C@H](C)[C@H]3[C@H]1/C=C/c1ccc(-c2ccccc2C#N)cn1 |  | 14.8 µM | 0.028 µM |
| C[C@H]1OC(=O)[C@@H]2CC(F)(F)[C@@H](C)[C@H](c3ccc(-c4cccc(F)c4)cn3)[C@H]12 |  |  | 0.005 µM |
| CCOC(=O)N1C[C@H]2[C@H](C)[C@@H](C)[C@H](/C=C/c3ccc(-c4ccccc4C#N)cn3)[C@@H]3[C@@H](C)OC(=O)[C@@]32C1 |  | 1.6 µM | 0.004 µM |
